Test results reported in patent US20120053239A1, “TREATMENT FOR INTESTINAL GAS, BLOATING, MICROSCOPIC COLITIS, INFLAMMATORY BOWEL DISEASE AND TRAVELER'S DIARRHEA USING COLLOIDAL BISMUTH SUBCITRATE” (priority 2006, published 2012).

Legend:
[1] = 20 clinical studies, more than 5000 patients; cited from earlier work
[2] = cited from earlier work
[3] = Inventor's clinical experience: CBS in patients with severe flatus passage and gastrointestinal discomfort after nonabsorbable carbohydrates; type: in vivo, human; conditions: six patients; CBS 125 mg, 1 or 2 capsules per day or twice a day for one to two days
Method: (§1) The inventor has specific clinical experience with the use of CBS. Six patients who had episodic both severe flatus passage and gastrointestinal discomfort after the consumption of large quantities of nonabsorbable carbohydrates were treated with CBS obtained from a compounding pharmacy. […] A single dose of CBS 125 mg was administered to a dog with excessive and bothersome gas following a large meal including table food.

[4] = Single dose of CBS in a dog with excessive gas after a large meal; type: in vivo; conditions: single dose of CBS 125 mg
Method: as §1

[5] = CBS in one patient with symptomatic microscopic colitis; type: in vivo, human; conditions: CBS 600 mg three times daily for one month

Compound	side effects compared with ranitidine alone [1]	safety of use in nonulcer dyspepsia ([2]; 480 mg of CBS daily for 8 weeks)	serum bismuth levels after ingestion ([2]; up to 480 mg per day of CBS for more than 4 weeks)	acute symptoms of excess of gas passage [3]	toxic effects [3]	flatus after administration [4]	symptoms of microscopic colitis [5]
CNC(=C[N+](=O)[O-])NCCSCc1ccc(CN(C)C)o1.O=C([O-])CC(O)(CC(=O)[O-])C(=O)[O-].[Bi+3] [ranitidine bismuth citrate]	no different than those seen with ranitidine alone						
colloidal bismuth subcitrate [CBS]		safe use	safe serum bismuth levels	completely eliminated all of acute symptoms	No toxic effects were noted	Complete session of flatus	complete resolution of symptoms
